Measurements reported in paper PMC9078123, “Ahmpatinin ^iBu, a new HIV-1 protease inhibitor, from Streptomyces sp. CPCC 202950” (RSC Advances, 2018).
Square brackets hold non-standard residues; d marks the D form. Peptide text beside a SMILES is read from it. * marks the point of attachment. X1 = COc1ccc(C[C@H](N*)[C@@H](O)CC(=O)O)cc1; Sta = CC(C)C[C@H](N)[C@@H](O)CC(=O)O; Isobutyryl = CC(C)C(=O)*; Propionyl = CCC(=O)*

Columns and labels:
HIV-1 protease = target: T1, HIV-1 protease (Human immunodeficiency virus type 1 group M subtype B, UniProt P04585); experiment: Inhibition of HIV-1 protease activity; assay type: biochemical
T1 construct: HIV-1 PR is a 22 kDa dimeric aspartyl protease
Text: Analysis of the inhibition of HIV-1 protease activity

[1] = Cytotoxic activity assay, U2OS; conditions: human, U2OS osteosarcoma cells
Procedure: (§1) Cervical cancer (Hela), hepatocellular carcinoma (HepG2), and human osteosarcoma (U2OS) cell lines were obtained from the National Infrastructure of Cell Line Resource (Beijing, China).
(§2) This was measured using the previously described protocol.[34]

[2] = Cytotoxic activity assay, Hela; conditions: human, HeLa cervical cancer cells
Procedure: as §1, §2

[3] = Cytotoxic activity assay, HepG2; conditions: human, HepG2 hepatocellular carcinoma cells
Procedure: as §1, §2

SMILES	IC50 (HIV-1 protease) [nM]	also measured
COc1ccc(C[C@H](NC(=O)[C@H](C)NC(=O)C[C@H](O)[C@H](CC(C)C)NC(=O)[C@@H](NC(=O)[C@@H](NC(=O)C(C)C)C(C)C)C(C)C)[C@@H](O)CC(=O)O)cc1 [Compound 1, ^iBu-L-Val^1-L-Val^2-(3S,4S)-Sta-L-Ala-(3S,4S)-Ahmppa] (Isobutyryl-VV[Sta]A-X1)	1.79	–
CC(C)C[C@H](NC(=O)[C@@H](NC(=O)[C@@H](NC(=O)C(C)C)C(C)C)C(C)C)[C@@H](O)CC(=O)N[C@@H](C)C(=O)O [Compound 2, ^iBu-L-Val^1-L-Val^2-(3S,4S)-Sta-L-Ala] (Isobutyryl-VV[Sta]A-OH)	3190	–
CC(C)CCCCC(=O)N[C@H]1CCN(CC(=O)O)C1=O [Compound 3, (−)-(S)-2-[3-(6-methylheptanamido)-2-oxopyrrolidin-1-yl]acetic acid]	> 10000	inhibitory activity against HIV-1 protease (in words) (HIV-1 protease; preliminary in vitro assay): inactive
CCC(=O)N[C@H](C(=O)N[C@H](C(=O)N[C@@H](CC(C)C)[C@@H](O)CC(=O)N[C@@H](C)C(=O)N[C@@H](CC(C)C)[C@@H](O)CC(=O)O)C(C)C)C(C)C [Compound 5, pepstatin Pr] (Propionyl-VV[Sta]A[Sta]-OH)	22.3	–
CC(C)C[C@H](NC(=O)[C@H](C)NC(=O)C[C@H](O)[C@H](CC(C)C)NC(=O)[C@@H](NC(=O)[C@@H](NC(=O)C(C)C)C(C)C)C(C)C)[C@@H](O)CC(=O)O [Compound 6, pepsinostreptin] (Isobutyryl-VV[Sta]A[Sta]-OH)	9.9	–
COC(=O)C[C@H](O)[C@H](CC(C)C)NC(=O)[C@H](C)NC(=O)C[C@H](O)[C@H](CC(C)C)NC(=O)[C@@H](NC(=O)[C@@H](NC(C)=O)C(C)C)C(C)C [Compound 7, pepstatin Ac methyl ester] (Ac-VV[Sta]A[Sta]-OMe)	203	–
CCC(=O)N[C@H](C(=O)N[C@H](C(=O)N[C@@H](CC(C)C)[C@@H](O)CC(=O)N[C@@H](C)C(=O)N[C@@H](CC(C)C)[C@@H](O)CC(=O)OC)C(C)C)C(C)C [Compound 8, pepstatin Pr methyl ester] (Propionyl-VV[Sta]A[Sta]-OMe)	139	–
COC(=O)C[C@H](O)[C@H](CC(C)C)NC(=O)[C@H](C)NC(=O)C[C@H](O)[C@H](CC(C)C)NC(=O)[C@@H](NC(=O)[C@@H](NC(=O)C(C)C)C(C)C)C(C)C [Compound 9, pepsinostreptin methyl ester] (Isobutyryl-VV[Sta]A[Sta]-OMe)	782	–
COc1cccc2c1C(=O)c1c(O)c3c(c(O)c1C2=O)C[C@@](O)(C(=O)CO)C[C@@H]3O[C@H]1C[C@H](N)[C@H](O)[C@H](C)O1 [doxorubicin]	–	IC50 [1]: 2780 nM; IC50 [2]: 1420 nM; IC50 [3]: 1560 nM
